Molecular target: Sodium-dependent serotonin transporter (Homo sapiens, UniProt P31645, W103C)
Assay: Decrease in [3H]5-HT uptake at human SERT W103C mutant transfected in HEK293 cells

Chain of Sodium-dependent serotonin transporter (P31645 whole entry W103C): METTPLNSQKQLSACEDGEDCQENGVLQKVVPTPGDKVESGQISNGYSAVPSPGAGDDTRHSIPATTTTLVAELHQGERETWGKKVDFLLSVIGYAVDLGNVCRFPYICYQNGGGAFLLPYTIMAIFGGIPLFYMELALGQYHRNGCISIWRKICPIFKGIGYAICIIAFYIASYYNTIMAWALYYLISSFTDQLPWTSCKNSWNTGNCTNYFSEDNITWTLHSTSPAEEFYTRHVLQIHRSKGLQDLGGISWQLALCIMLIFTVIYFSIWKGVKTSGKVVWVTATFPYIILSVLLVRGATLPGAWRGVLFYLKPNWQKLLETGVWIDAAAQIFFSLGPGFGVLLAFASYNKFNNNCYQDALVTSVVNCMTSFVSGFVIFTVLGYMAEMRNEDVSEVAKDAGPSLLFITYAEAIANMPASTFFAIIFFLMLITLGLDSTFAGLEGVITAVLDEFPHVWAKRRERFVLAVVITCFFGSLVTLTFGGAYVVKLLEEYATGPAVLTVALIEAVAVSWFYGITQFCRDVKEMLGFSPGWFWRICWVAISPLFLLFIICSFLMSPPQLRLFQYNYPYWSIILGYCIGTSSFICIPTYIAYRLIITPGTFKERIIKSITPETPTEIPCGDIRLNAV

## C[N+](C)(C)CCSS(C)(=O)=O
  EC50: 501 µM

## C[n+]1ccc(-c2ccc(SS(C)(=O)=O)cc2)cc1
  EC50: 31.6 µM

Reference: BindingDB's records for doi:10.1016/j.bmc.2006.09.058 (Purdue University, 2007)
